Measured values published in patent US20070225213A1, “Nucleic acid carriers for delivery of therapeutic agents” (priority 2006, published 2007).
Values joined by “and” are separate entries in the source; they are usually repeats but may differ in a detail not shown here. Equal entries are not always repeated.

Columns and labels:
human MCF-7 cells = assay: Visually scored toxicity of NAC-MTN / NAC-DOX at fixed loading (Example 3); format: cell-based; conditions: 5.1% drug loading, 16 hour incubation
Procedure: Toxicity of NAC-MTN or NAC-DOX, at 50, 16.9, 5.6, and 1.9 ug/ml final drug concentration and 5.1 % drug loading in human MCF-7 cells. Sample A: 15 mg of HSDNA (EX031804A) was combined with 0.76 mg MTN(mw 517.4) or (sample B) 0.76 mg DOX (mw 579.99) to give 152 ug/ml final drug and 5.1% loading in 5 ml final vol. Samples C, D were MTN, or DOX only controls at equivalent final [drug] without HSDNA. Sample E was HSDNA, no drug and sample F was H2O only. MCF-7 cells were trypsinized and plated out previously. Triplicate samples were diluted 0.1 ml in 0.2 ml 1× media to give 3× fold serial dilution in 0.2 ml final. After 16 hour incubation the cells were visually inspected for signs of toxicity. Toxicity was scored as the following: 50%=one half all cells rounded, un-adhered or crenated.

MCF7 cells = assay: Drug loading vs toxicity at fixed [drug], MTT viability assay (Example 4); format: cell-based, human; conditions: Drug only, without carrier; 0.103 mM DOX; 72 hours
Procedure: FIG. 1. […] NAC-MTN or NAC-DOX were prepared at different weight:weight % of drug:nucleic acid and incubated in cells. For each sample and corresponding % loading, the total drug was held constant at 0.058 mM MTN or 0.1 mM DOX. After incubation in cells, cell viability was assayed via mitochondrial dehydrogenase activity against 3-[4,5-dimethylthiazol-2-yl]-2,5-diphenyl tetrazolium bromide (MTT) and reported as % toxicity relative to untreated cells.
Mitoxantrone (MTN, Sigma Aldrich) and Doxorubicin HCl (DOX) were diluted in HBSS to 1 mg/ml final. DNA, from degraded herring sperm DNA <40 bp (HSDNA, Sigma Aldrich), was prepared in water at 10 mg/ml. The drug was diluted in water or HBSS first, followed by addition of the DNA, in order to prevent precipitation. Precipitation of drug was especially a concern at 40% loading of MTN, which is the loading limit for HSDNA (degraded) and so the DNA is added slowly to the diluted MTN (the reverse addition leads to precipitation). All NAC-MTN formulation stocks were prepared at 0.15 mg/ml final MTN, and different concentration of DNA in order to give 15, 25, and 35.7% final drug loading w/w % of MTN/DNA in 0.5 ml final volume. All NAC-DOX formulations were prepared at 0.3 mg/ml final DOX, and either 5, 10, or 15% loaded drug weight/weight % of DOX/DNA in 0.5 ml final volume. […]

[1] = after 5 days; cited from earlier work
[2] = Stability of NAC-DOX complex in hank's buffered saline (HBSS) at pH 7; format: physicochemical
Procedure: The NAC-DOX complex was tested for stability in hank's buffered saline (HBSS) at pH 7.

[3] = Dipyridamole precipitation assay, supernatant absorbance A410 (Example 6); format: physicochemical
Procedure: Similar results were obtained for dipyridamole (DPA). Dipyridamole is a coronary vasodilator and functions primarily to reduce platelet adhesion and aggregation. […] Dipyridamole for intravenous injection is given as a sodium chloride or dextrose injection with 5 mg of DPA, 50 mg PEG600, 2 mg tartaric acid, and water at pH 2.7. Dipyridamole is readily soluble in acidic solution, however at higher pH it can precipitate. […] Furthermore, the nucleic acid targeting of dipyridamole can provide unexpected therapeutic benefits by enhancing its accumulation in specific areas of the body.
Dipyridamole (DPA, m.w. 504.6) was prepared as 10.27 mM […] solution in water acidified with HCl. DNA was from HSDNA 428A) 10 mg/ml in H2O prev. heated to 80C.
Prepared samples 1-3 by combining 25 ul of DPA and 0.2 ml DNA to give a turbid solution. Added 7 ul of 1M HCl to clarify, followed by 0.1 ml of 1M potassium phosphate buffer (KP) pH7. Repeated for samples 4-6 and replace DNA with water. […] Read absorbance of 0.3 ml supernatant at A410. Higher values corresponded to more drug solubilized.

[4] = Paclitaxel solubilization by NAC, turbidity OD410 (Example 8); format: physicochemical; conditions: formulation with a nucleic acid
Procedure: Solubility enhancement of paclitaxel by NAC. Aqueous paclitaxel solutions were prepared with or without DNA, sonicated, stored at room temperature for several hours, and then centrifuged. The pellets were resuspended in 50% ethanol and the precipitated paclitaxel was quantified using a standard absorbance curve at 230 nm. The total percentage of solubilized paclitaxel was calculated using %=100× (1-assy mM)/expected mM.
Materials: Paclitaxel 10.0 mg/ml (0.0118M, m.w. 853.92) in 80% ETOH. HSDNA (herring sperm degraded DNA 428A, Sigma-Aldrich) 10 mg/ml pH7 HSGDNA (genomic, Promega mw range 100 bp-3000 bp) 10 mg/ml. […] 1M potassium phosphate buffer pH5.
Aqueous paclitaxel solutions were prepared by combining 10 ul (0.01 ml) of paclitaxel stock (11.8 mM) with 2.0 ml H2O containing water only, HSGDNA, HSDNA, RNA, or HSDNA/pPEGPEI2K as indicated in the table. Samples were sonicated 3 min. with Branson Sonifier 450 @40% duty, at #3 output level. In 10 mM potassium phosphate pH5.
Let solutions stand 30 min, and read turbidity of 0.3 ml at A410 on the Synergy HT1. Samples were 10 min @2500 rpm on Beckman Allegra21R. The pellet was resuspended in 1.5 ml of 50% ETOH and OD230 nm was taken of a 0.3 ml sample in a Falcon UV clear plate on Synergy HT1. Prepared paclitaxel standard curve, 10 ul of 9.81 mM in 1 ml 50% ETOH was diluted 2×, serially in 5 vials at 0.5 ml final vol. […]

[5] = physiological conditions; cited from earlier work

| Compound | Toxicity (visual score) (human MCF-7 cells; 5.6 ug/ml final drug) | Toxicity (visual score) (human MCF-7 cells; 17 ug/ml final drug) | Toxicity (visual score) (human MCF-7 cells; 50 ug/ml final drug) | Toxicity (visual score) (human MCF-7 cells; 1 .9 ug/ml final drug) | further results |
| --- | --- | --- | --- | --- | --- |
| O=C1c2c(O)ccc(O)c2C(=O)c2c(NCCNCCO)ccc(NCCNCCO)c21 [C, mitoxantrone] | 90% | 100% | 100% | 20% | – |
| COc1cccc2c1C(=O)c1c(O)c3c(c(O)c1C2=O)C[C@@](O)(C(=O)CO)C[C@@H]3O[C@H]1C[C@H](N)[C@H](O)[C@H](C)O1 [DOX, doxorubicin] | – | 80-90% | – | – | % Tox (MCF7 cells): 67%; administered drug recovered in urine [1]: 4-5%; stability in hank's buffered saline (HBSS) at pH 7 [2]: became unstable at pH 7 |
| OCCN(CCO)c1nc(N2CCCCC2)c2nc(N(CCO)CCO)nc(N3CCCCC3)c2n1 [DPA, dipyridamole] | – | – | – | – | stability against precipitation ([3]; formulated with the nucleic acid carrier, aqueous solutions at pH 7): stabilized dipyridamole against precipitation; A410 of supernatant ([3]; potassium phosphate buffer pH7, 16 hours, higher = more drug solubilized, replicate samples): 0.388 and 0.396 and 0.401 |
| COc1cccc2c1C(=O)c1c(O)c3c(c(O)c1C2=O)C[C@@](O)(C(=O)CO)C[C@@H]3O[C@H]1C[C@H](N)[C@H](O)[C@H](C)O1 [Sample D, doxorubicin] | 20% | 80% | 100% | 10% | – |
| CC(=O)O[C@H]1C(=O)[C@@]2(C)[C@H]([C@H](OC(=O)c3ccccc3)[C@]3(O)C[C@H](OC(=O)[C@H](O)[C@@H](NC(=O)c4ccccc4)c4ccccc4)C(C)=C1C3(C)C)[C@]1(OC(C)=O)CO[C@@H]1C[C@@H]2O [paclitaxel] | – | – | – | – | enhancement of solubility of paclitaxel compared with water alone [4]: ≤ 200% |
| Mylotarg: mAB-calcheamicin conjugate with hydrazone linker | – | – | – | – | drug existing in free form [5]: approximately 50% |
